We go through 3 molecules from patent publication US20030158160A1, “Pharmaceutical combination of an anti-androgen and tamoxifen for providing an anti-androgenic effect and aromatase inhibition” (priority 2000, published 2003).

The test system of one experiment is healthy male volunteers. The experiment is described as follows: Human clinical trial: free testosterone levels after CASODEX together with NOLVADEX or CASODEX alone. It counts as in vivo. As to conditions: for Free testosterone concentration, gmean: n=7. As to the method:
The following clinical trial was performed to determine the effect of the administration of CASODEX™ together with NOLVADEX™ on free testosterone levels in healthy male volunteers over a 6 week period.
Key Inclusion Criteria: Male, aged 65 years or above showing no clinically significant abnormalities in routine haematological and biochemical tests and having endocrinology and prostate specific antigen (PSA) results within normal limits.
Key Exclusion Criteria: Previous inclusion in a clinical trial using CASODEX™; concurrent treatment with any drugs with the exception of paracetomol; history or presence of any testicular abnormality; history or presence of gastrointestinal, hepatic or renal disease, or other condition known to interfere with the absorption, distribution, metabolism or excretion of drugs; a clinically significant illness within 2 weeks of trial commencement; definite or suspected personal or family history of significant adverse drug reactions or any hypersensitivity to CASODEX™ or NOLVADEX™; treatment within the previous 3 months with any drugs known to have a well-defined potential for hepatotoxicity or hepatic interaction.
Dosage: The CASODEX™ was administered daily at a dose of 150 mg and the NOLVADEX™ was administered daily at a dose of 20 mg. All treatments were in tablet form and taken once daily. Daily treatment with CASODEX™ plus NOLVADEX™ was for 6 weeks, this period being selected as the minimum time to attain steady-state plasma concentrations for the drugs. Another set of volunteers were administered CASODEX™ alone at a daily dose of 150 mg for 4 weeks. All treatments were in tablet form and taken once daily.
Key Assessment: Free testosterone concentrations were measured during the course of the trial.
Day 1 samples were drawn before dosing, and therefore act as a baseline measurement.

A further experiment concerns men. As to conditions: cited from earlier work.
A further experiment deals with humans. The note with it: single agent therapy; cited from earlier work.

Structures are written as SMILES.

Take `CC(O)(CS(=O)(=O)c1ccc(F)cc1)C(=O)Nc1ccc(C#N)c(C(F)(F)F)c1` (stereo not drawn) [CASODEX™, bicalutamide]: the “Free testosterone concentration, gmean” value worked out at 0.048 nmol/L in the experiment with healthy male volunteers (Day 1, sample drawn before dosing (baseline)) and 0.076 nmol/L with healthy male volunteers (Day 29, CASODEX alone 150 mg daily for 4 weeks). Further, the “Free testosterone, ratio to Day 1” value in the experiment with healthy male volunteers (Day 29, CASODEX alone 150 mg daily) was 1.58. Moreover, the “Increase in mean free testosterone concentration by the end of the treatment period” value in the experiment with healthy male volunteers (end of treatment period (4 weeks CASODEX alone; 6 weeks combination)) was 58%.
With `CC/C(=C(\c1ccccc1)c1ccc(OCCN(C)C)cc1)c1ccccc1` [tamoxifen, (Z)-2-[p-(1,2-diphenylbut-1-enyl)phenoxy]ethyldimethylamine], the “Effect on mean serum testosterone, oestradiol, LH levels, LH pulse frequency and LH pulse amplitude” value in the experiment on men (13 normal men, 6 week administration (Spijkstra et al)) was “An increase”. Besides, the “Effect on basal serum levels of LH, oestradiol and testosterone” value with men (administration to men (Lewis-Jones et al)) is recorded as “elevates”. The “Effect on testosterone and LH” value with men (intake in adult men (Comhaire et al)) is “increase testosterone and LH”. Besides, the “Effect on basal LH, FSH and testosterone levels” value in the experiment on men (three months' treatment, normogonadotrophic oligozoospermic men (van Bergeijk et al)) is recorded as “stimulated”.
In the case of `CC1(C)NC(=O)N(c2ccc([N+](=O)[O-])c(C(F)(F)F)c2)C1=O` [nilutamide, 5,5-dimethyl-3-[4-nitro-3-(trifluoromethyl)phenyl]-2,4-imidazolidinedione], the “Change of basal level of circulating testosterone” value in the experiment with humans was “causes an increase”.
